Experimental data: PubChem BioAssay (NCI)
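Method: 48-hour compound exposure of cells in 96-well plates, five concentrations, linear interpolation of endpoints. At the GI50, growth is halved. TGI: concentration producing complete growth inhibition.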

What was measured:
Assay in all cases: inhibition of tumour cell growth, NCI panel, 48 h
CCRF-CEM leukemia = tested on: CCRF-CEM leukemia
DU-145 prostate = tested on: DU-145 prostate
HL-60(TB) leukemia = tested on: HL-60(TB) leukemia
HOP-62 NSCLC = tested on: HOP-62 NSCLC
LOX IMVI melanoma = tested on: LOX IMVI melanoma
OVCAR-5 ovarian = tested on: OVCAR-5 ovarian
OVCAR-8 ovarian = tested on: OVCAR-8 ovarian
SK-MEL-2 melanoma = tested on: SK-MEL-2 melanoma
SNB-75 CNS = tested on: SNB-75 CNS
SW-620 colon = tested on: SW-620 colon
U251 CNS = tested on: U251 CNS
SR leukemia = tested on: SR leukemia

| SMILES | TGI (CCRF-CEM leukemia) [µM] | TGI (DU-145 prostate) [µM] | TGI (HL-60(TB) leukemia) [µM] | TGI (HOP-62 NSCLC) [µM] | TGI (LOX IMVI melanoma) [µM] | TGI (OVCAR-5 ovarian) [µM] | TGI (OVCAR-8 ovarian) [µM] | TGI (SK-MEL-2 melanoma) [µM] | TGI (SNB-75 CNS) [µM] | TGI (SW-620 colon) [µM] | TGI (U251 CNS) [µM] | TGI (SR leukemia) [µM] | GI50 (CCRF-CEM leukemia) [µM] | GI50 (LOX IMVI melanoma) [µM] |
| --- | --- | --- | --- | --- | --- | --- | --- | --- | --- | --- | --- | --- | --- | --- |
| CC1=C(C(=O)NC(C)(C)C)CC(C(=O)NC(C)(C)C)C(C)N1 (configuration not stated) | > 100 | > 100 | > 100 | > 100 | > 100 | > 100 | > 100 | > 100 | > 100 | > 100 | > 100 |  |  |  |
| O=C(Nc1ccc(S(=O)(=O)Nc2ncccn2)cc1)c1c2ccccc2nc2ccccc12 |  | > 100 | > 100 | > 100 | > 100 | > 100 | > 100 | > 100 | > 100 | > 100 | > 100 | > 100 |  |  |
| COc1ccc(/C=C(\Cl)c2ccc(OC)cc2)cc1 | > 100 |  | > 100 | > 100 | > 100 | > 100 | > 100 |  | > 100 | > 100 | > 100 | > 100 |  |  |
| COc1cc2c(cc1OCCCCN1CCN(CCCCOc3cc4c(cc3OC)C(=O)N3CCC[C@H]3C=N4)CC1)N=C[C@@H]1CCCN1C2=O | 41.6 | > 100 |  | > 42 | > 100 | 0.163 | 18.6 | 0.175 |  | > 40 | > 100 | > 100 | < 0.01 | 0.0267 |
| CSc1nc(C)c(CCCl)c(Cl)n1 | > 100 | > 100 |  | > 100 | > 100 |  | > 100 |  | > 100 | > 100 | > 100 |  |  |  |
| CSc1nc(-c2ccc(Cl)cc2)c(C#N)c(=O)[nH]1 | > 100 | > 100 | > 100 | > 100 |  | > 100 | > 100 | > 100 | > 100 | > 100 | > 100 |  |  |  |
| CC[C@H](C)[C@H]1NC(=O)[C@@H](NC(=O)[C@@H](CC(C)C)N(C)C(=O)C2CCCN2C(=O)[C@H](C)O)[C@@H](C)OC(=O)[C@H](Cc2ccccc2)N(C)C(=O)[C@@H]2CCCN2C(=O)[C@H](CC(C)C)NC(=O)[C@@H](C)C(=O)[C@H](C(C)C)OC(=O)C[C@@H]1O (some centres not stated) | > 62.5 |  | > 62.5 | 0.0639 | < 0.00625 | 0.075 | 0.0461 | 0.0954 | < 0.00625 | > 62.5 |  |  |  |  |
| CCCCCCC(=O)OC[n+]1cccc(-c2c(COC(=O)NC(C)C)c(COC(=O)NC(C)C)c3n2CCC3)c1 | > 66.5 | 98.4 | > 48.9 | > 100 | 69 | > 100 | > 100 | 60.4 | > 100 | > 100 | > 100 |  |  |  |
| CCCN(CCC)C(=O)c1c(Cl)c2cccnc2n2c(C)cnc12 | > 100 | > 100 | 71.7 | > 100 | > 100 | > 100 | > 100 |  | > 100 | > 100 |  | > 100 |  |  |
| CCOC(=O)NC(=S)NC(C)c1ccccc1 (configuration not stated) | > 100 | > 100 |  | > 100 |  | > 100 | > 100 | > 100 | > 100 | > 100 | > 100 | > 100 |  |  |
